Measurements: article PMC2952445 (The journal of pain : official journal of the American Pain …, 2009)

Biological target: mu opioid peptide (MOP) receptor (mouse brain) (Mus musculus, UniProt P42866)
Sequence (P42866 whole entry): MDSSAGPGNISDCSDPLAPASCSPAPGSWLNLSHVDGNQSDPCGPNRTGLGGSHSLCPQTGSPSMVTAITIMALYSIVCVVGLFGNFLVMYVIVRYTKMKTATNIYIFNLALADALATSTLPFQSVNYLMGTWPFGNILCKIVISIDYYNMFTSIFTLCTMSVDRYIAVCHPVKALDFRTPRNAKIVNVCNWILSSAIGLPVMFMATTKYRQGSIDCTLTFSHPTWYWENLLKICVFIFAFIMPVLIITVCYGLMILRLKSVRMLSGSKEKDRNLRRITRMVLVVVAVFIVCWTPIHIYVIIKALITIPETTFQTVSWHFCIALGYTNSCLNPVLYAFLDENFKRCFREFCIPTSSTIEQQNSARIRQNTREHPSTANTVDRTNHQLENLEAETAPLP

In the case of `CCC(=O)C(CC(C)N(C)C)(c1ccccc1)c1ccccc1` (stereo not shown) [methadone], the IC50 is reported as 11.7 ± 1.2 nM.
